Assay results published in PubChem BioAssay AID256 (DTP/NCI, 2004).
Where “and” joins values, the source holds several entries; their conditions need not be identical. Equal entries are not always repeated. Toxic doses and inconclusive results are not listed. The calls were made as follows: active = survival T/C of 150% or more; inactive = T/C below 125% in these data.

Tested on: CD2F1 mice, L1210 leukemia ip, survival T/C
Test: NCI In Vivo Anticancer Drug Screen. Data for tumor model L1210 Leukemia (intraperitoneal) in CD2F1 (CDF1) mice
Conditions: higher = longer survival
Procedure, shortened: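 Compound-dosed mice with transplantable tumor versus matched vehicle controls; endpoint ratio T/C reported.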

[1] = endpoint: mean survival time, dose: 100.0 mg/kg/injection, schedule: Q01DX009 (ip), vehicle: Klucel (hydroxypropylcellulose) (HPC)
[2] = endpoint: mean survival time, dose: 200.0 mg/kg/injection, schedule: Q01DX009 (ip), vehicle: Klucel (hydroxypropylcellulose) (HPC)
[3] = endpoint: mean survival time, dose: 100.0 mg/kg/injection, schedule: Q01DX001 (ip), vehicle: saline with Tween-80
[4] = endpoint: mean survival time, dose: 200.0 mg/kg/injection, schedule: Q01DX001 (ip), vehicle: saline with Tween-80
[5] = endpoint: mean survival time, dose: 400.0 mg/kg/injection, schedule: Q01DX001 (ip), vehicle: saline with Tween-80
[6] = endpoint: mean survival time, dose: 100.0 mg/kg/injection, schedule: Q01DX009 (ip), vehicle: saline with Tween-80
[7] = endpoint: mean survival time, dose: 200.0 mg/kg/injection, schedule: Q01DX009 (ip), vehicle: saline with Tween-80
[8] = endpoint: mean survival time, dose: 400.0 mg/kg/injection, schedule: Q01DX009 (ip), vehicle: saline with Tween-80
[9] = endpoint: mean survival time, dose: 100.0 mg/kg/injection, schedule: Q04DX003 (ip), vehicle: saline with Tween-80
[10] = endpoint: mean survival time, dose: 200.0 mg/kg/injection, schedule: Q04DX003 (ip), vehicle: saline with Tween-80
[11] = endpoint: mean survival time, dose: 400.0 mg/kg/injection, schedule: Q04DX003 (ip), vehicle: saline with Tween-80
[12] = endpoint: mean survival time, dose: 50.0 mg/kg/injection, schedule: Q01DX009 (ip), vehicle: Klucel (hydroxypropylcellulose) (HPC)

Measured: T/C

C[N+](C)(C)CC1CCCC1
inactive: endpoint: mean survival time, dose: 5.0 mg/kg/injection, schedule: Q01DX001 (ip), vehicle: saline 97 % of control | endpoint: mean survival time, dose: 10.0 mg/kg/injection, schedule: Q01DX001 (ip), vehicle: saline 102 % of control | endpoint: mean survival time, dose: 20.0 mg/kg/injection, schedule: Q01DX001 (ip), vehicle: saline 103 % of control | endpoint: mean survival time, dose: 40.0 mg/kg/injection, schedule: Q01DX001 (ip), vehicle: saline 103 % of control

COc1ccc(/C=C(/C)C(=O)c2ccccc2)cc1
inactive: [1] 97 % of control | [2] 97 % of control | endpoint: mean survival time, dose: 400.0 mg/kg/injection, schedule: Q01DX009 (ip), vehicle: Klucel (hydroxypropylcellulose) (HPC) 91 % of control

N=C(N)c1cccc(NC(=O)CCc2ccccc2)c1
inactive: [3] 97 % of control | [4] 93 % of control | [5] 92 % of control

C=CCCCCCCCCC(=O)NN1CCOCC1
inactive: [6] 94 % of control | [7] 91 % of control | [8] 94 % of control

O=[N+]([O-])c1ccc(-n2[nH]nnc2=S)cc1
inactive: endpoint: mean survival time, dose: 12.5 mg/kg/injection, schedule: Q01DX009 (ip), vehicle: saline with Tween-80 95 % of control | endpoint: mean survival time, dose: 25.0 mg/kg/injection, schedule: Q01DX009 (ip), vehicle: saline with Tween-80 93 % of control | endpoint: mean survival time, dose: 50.0 mg/kg/injection, schedule: Q01DX009 (ip), vehicle: saline with Tween-80 102 % of control | endpoint: mean survival time, dose: 100.0 mg/kg/injection, schedule: Q01DX009 (ip), vehicle: acetone 95 % of control | [6] 96 % of control | endpoint: mean survival time, dose: 200.0 mg/kg/injection, schedule: Q01DX009 (ip), vehicle: acetone 94 % of control | [7] 96 % of control | [8] 93 % of control

CCC(C)OC(=O)Nc1ccccc1 (stereo not drawn)
inactive: [6] 96 % of control | [9] 94 % of control | [7] 98 % of control | [10] 94 % of control | [8] 98 % of control | [11] 94 % of control

CN(C)CCC(C#N)(c1ccccc1)c1ccccc1
inactive: endpoint: mean survival time, dose: 75.0 mg/kg/injection, schedule: Q01DX001 (ip), vehicle: saline 102 % of control | endpoint: mean survival time, dose: 150.0 mg/kg/injection, schedule: Q01DX001 (ip), vehicle: saline 100 % of control

CC1(C)CC(OP(=O)(OC2CC(C)(C)N(O)C(C)(C)C2)N2CC2)CC(C)(C)N1O
inactive: endpoint: mean survival time, dose: 12.5 mg/kg/injection, schedule: Q01DX009 (ip), vehicle: water 102 % of control | endpoint: mean survival time, dose: 25.0 mg/kg/injection, schedule: Q01DX009 (ip), vehicle: water 113 % of control and 104 % of control | endpoint: mean survival time, dose: 50.0 mg/kg/injection, schedule: Q01DX009 (ip), vehicle: water 110 % of control | endpoint: mean survival time, dose: 100.0 mg/kg/injection, schedule: Q01DX009 (ip), vehicle: water 112 % of control

Cc1ccc(C)c(NC(=O)NCc2ccccc2)c1
inactive: [6] 97 % of control | [7] 106 % of control

C1=C(Nc2ccccc2)C(=Nc2ccccc2)C=C(Nc2ccccc2)C1=Nc1ccccc1
inactive: endpoint: mean survival time, dose: 25.0 mg/kg/injection, schedule: Q04DX003 (ip), vehicle: saline with Tween-80 96 % of control | endpoint: mean survival time, dose: 50.0 mg/kg/injection, schedule: Q04DX003 (ip), vehicle: saline with Tween-80 96 % of control | [9] 98 % of control

O=c1cc[nH]c2c(-c3ccccc3)cccc12
inactive: endpoint: mean survival time, dose: 37.5 mg/kg/injection, schedule: Q01DX009 (ip), vehicle: saline 108 % of control | endpoint: mean survival time, dose: 75.0 mg/kg/injection, schedule: Q01DX009 (ip), vehicle: saline 105 % of control | endpoint: mean survival time, dose: 75.0 mg/kg/injection, schedule: Q04DX003 (ip), vehicle: saline 95 % of control | endpoint: mean survival time, dose: 150.0 mg/kg/injection, schedule: Q01DX009 (ip), vehicle: saline 97 % of control | endpoint: mean survival time, dose: 150.0 mg/kg/injection, schedule: Q04DX003 (ip), vehicle: saline 98 % of control | endpoint: mean survival time, dose: 300.0 mg/kg/injection, schedule: Q04DX003 (ip), vehicle: saline 97 % of control

CCC(C)(C)OC(=O)Nc1ccc(C)c(NC(=O)OC(C)(C)CC)c1
inactive: endpoint: mean survival time, dose: 75.0 mg/kg/injection, schedule: Q01DX001 (ip), vehicle: other 86 % of control | endpoint: mean survival time, dose: 150.0 mg/kg/injection, schedule: Q01DX001 (ip), vehicle: other 86 % of control | endpoint: mean survival time, dose: 300.0 mg/kg/injection, schedule: Q01DX001 (ip), vehicle: other 90 % of control

Cc1ccc(/C=C/C(=O)/C=C/c2ccc(C)o2)o1
inactive: endpoint: median survival time, dose: 25.0 mg/kg/injection, schedule: Q01DX005 (ip), vehicle: saline with Tween-80 98 % of control | endpoint: median survival time, dose: 50.0 mg/kg/injection, schedule: Q01DX005 (ip), vehicle: saline with Tween-80 92 % of control | endpoint: median survival time, dose: 100.0 mg/kg/injection, schedule: Q01DX005 (ip), vehicle: saline with Tween-80 100 % of control | endpoint: median survival time, dose: 200.0 mg/kg/injection, schedule: Q01DX005 (ip), vehicle: saline with Tween-80 103 % of control | endpoint: median survival time, dose: 400.0 mg/kg/injection, schedule: Q01DX005 (ip), vehicle: saline with Tween-80 98 % of control

O=C1C=C(C2CCCCC2)C(=O)c2ccccc21
inactive: [6] 88 % of control | [9] 98 % of control | [7] 91 % of control | [10] 92 % of control | [8] 95 % of control | [11] 95 % of control

CC(=O)Nc1ccc([N+](=O)[O-])cc1
inactive: [6] 96 % of control | [9] 90 % of control | [7] 101 % of control | [10] 98 % of control | [8] 111 % of control | [11] 98 % of control

CC(=O)N(C)[Si](C)(C)C
inactive: [3] 96 % of control | endpoint: mean survival time, dose: 100.0 mg/kg/injection, schedule: Q01DX009 (ip), vehicle: saline sonified 98 % of control | endpoint: mean survival time, dose: 100.0 mg/kg/injection, schedule: Q04DX003 (ip), vehicle: saline 98 % of control | [4] 100 % of control | endpoint: mean survival time, dose: 200.0 mg/kg/injection, schedule: Q01DX009 (ip), vehicle: saline sonified 96 % of control | endpoint: mean survival time, dose: 200.0 mg/kg/injection, schedule: Q04DX003 (ip), vehicle: saline 97 % of control | [5] 106 % of control | endpoint: mean survival time, dose: 400.0 mg/kg/injection, schedule: Q01DX009 (ip), vehicle: saline sonified 96 % of control | endpoint: mean survival time, dose: 400.0 mg/kg/injection, schedule: Q04DX003 (ip), vehicle: saline 101 % of control

CC(=O)OC1CCC2(C)C(=CC=C3C2=CCC2(C)C3CCC2C(C)/C=C\C(C)C(C)C)C1 (stereo not drawn)
inactive: [12] 96 % of control | [1] 93 % of control | [2] 101 % of control

CN(C)c1ccc(/C=C2N=C(/C=C\c3ccccc3)OC\2=O)cc1
inactive: endpoint: mean survival time, dose: 100.0 mg/kg/injection, schedule: Q04DX002 (ip), vehicle: saline with Tween-80 98 % of control | endpoint: mean survival time, dose: 200.0 mg/kg/injection, schedule: Q04DX002 (ip), vehicle: saline with Tween-80 94 % of control | endpoint: mean survival time, dose: 400.0 mg/kg/injection, schedule: Q04DX002 (ip), vehicle: saline with Tween-80 105 % of control

CCOC(=O)C1(C(=O)OCC)CCC2Nc3ccccc3C(=O)N21 (stereo not drawn)
inactive: endpoint: mean survival time, dose: 100.0 mg/kg/injection, schedule: Q01DX001 (ip), vehicle: Klucel (hydroxypropylcellulose) (HPC) 108 % of control | endpoint: mean survival time, dose: 200.0 mg/kg/injection, schedule: Q01DX001 (ip), vehicle: Klucel (hydroxypropylcellulose) (HPC) 108 % of control | endpoint: mean survival time, dose: 400.0 mg/kg/injection, schedule: Q01DX001 (ip), vehicle: Klucel (hydroxypropylcellulose) (HPC) 96 % of control

CCCCCCCNC(=O)Nc1ccc(Cl)c(Cl)c1
inactive: [3] 103 % of control | [4] 100 % of control | [5] 103 % of control

Clc1nc2ccccc2nc1CI
inactive: endpoint: mean survival time, dose: 100.0 mg/kg/injection, schedule: Q04DX003 (ip), vehicle: acetone 100 % of control

COc1cc2c(cc1OC)C1CC(=O)CCN1CC2 (stereo not drawn)
inactive: endpoint: mean survival time, dose: 12.5 mg/kg/injection, schedule: Q01DX009 (ip), vehicle: Klucel (hydroxypropylcellulose) (HPC) 97 % of control and 104 % of control | endpoint: mean survival time, dose: 25.0 mg/kg/injection, schedule: Q01DX009 (ip), vehicle: Klucel (hydroxypropylcellulose) (HPC) 97 % of control and 98 % of control | [12] 95 % of control and 98 % of control | [1] 97 % of control and 100 % of control | endpoint: median survival time, dose: 12.5 mg/kg/injection, schedule: Q01DX009 (ip), vehicle: Klucel (hydroxypropylcellulose) (HPC) 97 % of control | endpoint: median survival time, dose: 25.0 mg/kg/injection, schedule: Q01DX009 (ip), vehicle: Klucel (hydroxypropylcellulose) (HPC) 94 % of control | endpoint: median survival time, dose: 50.0 mg/kg/injection, schedule: Q01DX009 (ip), vehicle: Klucel (hydroxypropylcellulose) (HPC) 92 % of control | endpoint: median survival time, dose: 100.0 mg/kg/injection, schedule: Q01DX009 (ip), vehicle: Klucel (hydroxypropylcellulose) (HPC) 101 % of control

COC(=O)c1cccc2c(Cl)cc3ccccc3c12
inactive: [6] 105 % of control | [9] 98 % of control | [7] 105 % of control | [10] 104 % of control | [8] 103 % of control | [11] 97 % of control

O=C(COc1ccc(Cl)c(Cl)c1)NCc1cccc(Cl)c1
inactive: [9] 95 % of control | [10] 93 % of control | [11] 95 % of control
